Data on 5 compounds can be found in patent publication US20200039918A1, “METHOD FOR PREPARING SINGLE CRYSTAL OF ANHYDROUS HALOGENATED CHOLINE OR DERIVATIVE THEREOF” (HEBEI UNIVERSITY OF SCIENCE AND TECHNOLOGY, priority 2017, published 2020).

Data set [1] is described as follows: water absorption and agglomeration after being placed in the air for 24 hours. The data set is classed as physicochemical.
For data set [2] the following is noted: TG. The procedure:
The crystal structure and thermal stability of anhydrous choline chloride single crystal product obtained in Experiment example 1 were analyzed, respectively.

For the compound `CC(=O)OCC[N+](C)(C)C.[Cl-]` [acetylcholine chloride], in data set [1], the agglomeration result is reported as “not agglomerated” and the water absorption amount turned out to be 1.58 wt %.
As for `C[N+](C)(C)CCO.[I-]` [anhydrous choline iodide single crystal, choline iodide], in data set [1], the agglomeration result is given as “not agglomerated” and the water absorption amount is 2.30 wt %.
`C[N+](C)(C)CCO.[Cl-]` [choline chloride]: in data set [2] (FIG. 5), the “initial temperature of thermal cracking” value is 350 °C and the “temperature at which the weight loss rate reaches the maximum” value worked out at 370 °C. Further, the “thermal stability (comparison in words)” value in data set [2] (versus commercial product) is “better than that of commercial choline chloride”. Moreover, the “temperature at which weight loss began” value in data set [2] (weight loss ascribed to evaporation of water) stood at 330 °C. In data set [1], the agglomeration result is on record as “not agglomerated” and the water absorption amount came to 2.58 wt %.
As for `CCC(=O)OCC[N+](C)(C)C.[Br-]` [propionylcholine bromide], in data set [1], the agglomeration result was “not agglomerated” and the water absorption amount is given as 0.77 wt %.
As to `CCC(=O)OCC[N+](C)(C)C.[Cl-]` [propionylcholine chloride], in data set [1], the agglomeration result is “not agglomerated” and the water absorption amount is reported as 1.06 wt %.
